Experimental data reported in PubChem BioAssay (NCI).
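Following 48 hours of exposure in 96-well plates, responses at five concentrations were used to interpolate endpoints linearly. Abbreviation: GI50, concentration required for 50% inhibition of growth. The concentration for full growth arrest is given as TGI.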

How the values were obtained:
Experiment in all cases: inhibition of tumour cell growth, NCI panel, 48 h; in the data active = GI50 below about 0.43 µM; inactive = the rest
[1] = test system: EKVX NSCLC
[2] = test system: HCC-2998 colon
[3] = test system: HCT-15 colon
[4] = test system: K-562 leukemia
[5] = test system: MALME-3M melanoma
[6] = test system: OVCAR-5 ovarian
[7] = test system: SF-295 CNS
[8] = test system: SK-MEL-2 melanoma
[9] = test system: UACC-257 melanoma
[10] = test system: NCI-H522 lung

O=C1NC2(CCCCC2)C2CCCCC(O)C12 (stereo not drawn)
> 100 µM: TGI [1] | TGI [2] | TGI [3] | TGI [4] | TGI [5] | TGI [6] | TGI [7] | TGI [8] | TGI [9]

COc1c2ccoc2c(/C=C/C=O)c2oc(-c3ccccc3)cc(=O)c12
inactive: GI50 [2] 16.1 µM | GI50 [3] 2.52 µM | GI50 [4] 3.21 µM | GI50 [5] 3.57 µM | GI50 [10] 17.6 µM | GI50 [6] 22.3 µM | GI50 [7] 13.6 µM | GI50 [8] 10.6 µM | GI50 [9] 11.5 µM
42 µM: TGI [2]
24.2 µM: TGI [9]
63.7 µM: TGI [6]
97.9 µM: TGI [7]
9.17 µM: TGI [5]
9.06 µM: TGI [3]
> 100 µM: TGI [4] | TGI [10] | TGI [8]

COc1cccc(NC(=O)CC(=O)n2nc(C)c(N=Nc3ccccc3)c2C)c1
> 100 µM: TGI [1] | TGI [2] | TGI [5] | TGI [10] | TGI [7] | TGI [9]

C[C@@H](CS(C)(=O)=O)Nc1ncc2cc(Oc3ccc(F)cc3F)c(=O)n(C)c2n1
> 25 µM: TGI [2] | TGI [3] | TGI [4] | TGI [5] | TGI [10] | TGI [6] | TGI [7] | TGI [8] | TGI [9]
inactive: GI50 [2] > 25 µM | GI50 [3] > 25 µM | GI50 [4] > 25 µM | GI50 [5] > 25 µM | GI50 [10] > 25 µM | GI50 [6] > 25 µM | GI50 [7] > 25 µM | GI50 [8] > 25 µM | GI50 [9] > 25 µM

COC(=O)Nc1nc2ccc(S(=O)c3ccccc3)cc2[nH]1 (stereo not drawn)
> 100 µM: TGI [1] | TGI [2] | TGI [3] | TGI [5] | TGI [6] | TGI [8] | TGI [9]
40.2 µM: TGI [10]
inactive: GI50 [1] 35 µM | GI50 [2] 10.5 µM | GI50 [3] 4.58 µM | GI50 [5] 5.21 µM | GI50 [10] 2.79 µM | GI50 [6] 9.12 µM | GI50 [8] 3.29 µM | GI50 [9] > 100 µM

CC(=O)[O][Hg][c]1c(N)c(C)cc(C)c1F
3.25 µM: TGI [5]
inactive: GI50 [2] 2.28 µM | GI50 [3] 1.01 µM | GI50 [4] 0.749 µM | GI50 [5] 1.63 µM | GI50 [6] 1.95 µM | GI50 [7] 7.92 µM | GI50 [8] 1.56 µM | GI50 [9] 1.51 µM
4.03 µM: TGI [4]
3.23 µM: TGI [8]
0.344 µM: TGI [10]
2.55 µM: TGI [3]
21.8 µM: TGI [7]
4.87 µM: TGI [2]
3.67 µM: TGI [6]
2.96 µM: TGI [9]
active: GI50 [10] 0.167 µM

COc1ccc2c(c1)C(=O)/C(=C/c1ccc(OCC(=O)Nc3nccs3)cc1)O2
active: GI50 [10] 0.191 µM | GI50 [8] 0.231 µM
17.8 µM: TGI [3]
31.7 µM: TGI [2]
10.2 µM: TGI [6]
4.15 µM: TGI [5]
0.393 µM: TGI [10]
0.588 µM: TGI [8]
inactive: GI50 [1] 2.04 µM | GI50 [2] 15.2 µM | GI50 [3] 4.51 µM | GI50 [4] 1.84 µM | GI50 [5] 0.858 µM | GI50 [6] 1.79 µM | GI50 [9] 18 µM
36.6 µM: TGI [9]

CC[C@@]12CCCN3CC[C@]4(c5cccc(OC)c5N(C(C)=O)[C@@H]4CC1)[C@H]32
51.1 µM: TGI [2]
> 100 µM: TGI [1] | TGI [3] | TGI [5] | TGI [10] | TGI [6] | TGI [7] | TGI [8] | TGI [9]

CC(=O)OC1COC(n2c(=S)n(-c3ccc(C)cc3)c(=O)c3ccccc32)C(OC(C)=O)C1OC(C)=O (stereo not drawn)
> 100 µM: TGI [1] | TGI [2] | TGI [3] | TGI [5] | TGI [10] | TGI [6] | TGI [7] | TGI [8] | TGI [9]

CC1CN1P1(N2CC2C)=NP(N2CC2C)(N2CC2C)=NP(N2CC2C)(N2CC2C)=N1 (stereo not drawn)
> 50 µM: TGI [1] | TGI [2] | TGI [3] | TGI [4] | TGI [5] | TGI [10] | TGI [7]

O=C(O)C(Cc1ccccc1)N1C(=O)N/C(=C\c2ccc(F)cc2)C1=O (stereo not drawn)
> 100 µM: TGI [1] | TGI [2] | TGI [3] | TGI [4] | TGI [10] | TGI [6] | TGI [7] | TGI [8] | TGI [9]

COc1ccc2c(c1)C1(C=N2)CCN(C(C)=O)CC1
> 100 µM: TGI [1] | TGI [2] | TGI [3] | TGI [4] | TGI [5] | TGI [6] | TGI [7] | TGI [8] | TGI [9]

NC(CCc1nc(-c2ccc(Cl)cc2)cs1)C(=O)O (stereo not drawn)
> 100 µM: TGI [1] | TGI [2] | TGI [3] | TGI [5] | TGI [10] | TGI [6] | TGI [7] | TGI [8] | TGI [9]

C=CCc1cc(OC)c2c(c1)C(O)CC(c1ccc(OC)c(OC)c1)O2 (stereo not drawn)
> 100 µM: TGI [1] | TGI [2] | TGI [3] | TGI [4] | TGI [10] | TGI [6] | TGI [7] | TGI [8] | TGI [9]

CC(C)=CCCc1c(C)ccc2c1C(=O)C(=O)C(C(C)C)=C2
> 22 µM: TGI [1] | TGI [2] | TGI [7]
6.39 µM: TGI [10]
8.14 µM: TGI [8]
6.78 µM: TGI [5]
8.08 µM: TGI [4]
7.14 µM: TGI [3]

CC(=O)N1[C@H](C(=O)O)CS[C@H]1c1ccncc1
> 100 µM: TGI [1] | TGI [2] | TGI [3] | TGI [4] | TGI [5] | TGI [6] | TGI [7] | TGI [9]

O=[S@@]1Nc2ccc(Br)cc2S1
68.6 µM: TGI [10]
> 100 µM: TGI [1] | TGI [4] | TGI [5] | TGI [7] | TGI [8] | TGI [9]

O=C(O)CCSC(=O)Nc1cccc(F)c1
> 100 µM: TGI [1] | TGI [2] | TGI [3] | TGI [4] | TGI [6] | TGI [7] | TGI [8] | TGI [9]

COc1ccc(C2=CSc3cc(Cl)c(C)cc3S(=O)(=O)N2C(C)=O)cc1
69.5 µM: TGI [2]
inactive: GI50 [1] 38.2 µM | GI50 [2] 27.1 µM | GI50 [3] 24.6 µM | GI50 [4] 27.8 µM | GI50 [10] 53.9 µM | GI50 [6] 52.7 µM | GI50 [8] 63.4 µM | GI50 [9] 36.2 µM
> 100 µM: TGI [1] | TGI [4] | TGI [10] | TGI [6] | TGI [8] | TGI [9]
88.5 µM: TGI [3]

CNC(=O)c1cc(Oc2ccc3nc(NC(=O)Nc4ccc(Cl)c(C(F)(F)F)c4)sc3c2)ccn1
> 100 µM: TGI [10] | TGI [9]
47 µM: TGI [8]
7.55 µM: TGI [6]
inactive: GI50 [10] 2.54 µM | GI50 [6] 2.46 µM | GI50 [7] 1.79 µM | GI50 [8] 5.69 µM | GI50 [9] 3.37 µM
3.71 µM: TGI [7]

CCOC(=O)C(Sc1ccccc1)c1c(OC)cc(=O)oc1/C=[N+](/[O-])c1ccc(N(C)C)cc1 (stereo not drawn)
28.7 µM: TGI [9]
83.1 µM: TGI [6]
23.8 µM: TGI [4]
58.7 µM: TGI [2]
67 µM: TGI [7]
> 100 µM: TGI [1]
77.5 µM: TGI [8]
58.5 µM: TGI [5]
31.8 µM: TGI [3]

CCNC1C2(CCCCC2)NC(=O)C12CCCCC2 (stereo not drawn)
> 100 µM: TGI [1] | TGI [2] | TGI [3] | TGI [4] | TGI [5] | TGI [6] | TGI [7] | TGI [8] | TGI [9]

N#CC(C#N)=c1ccc(=C2NCC3CCCN23)cc1 (stereo not drawn)
> 100 µM: TGI [2] | TGI [3] | TGI [4] | TGI [5] | TGI [10] | TGI [6] | TGI [7] | TGI [8] | TGI [9]

Oc1ccc(Cl)cc1-c1cc(-c2ccccc2Cl)[nH]n1
inactive: GI50 [2] 2.86 µM | GI50 [3] 0.488 µM | GI50 [4] 4.59 µM | GI50 [5] 9.76 µM | GI50 [10] 3.26 µM | GI50 [6] 8.88 µM | GI50 [7] 8.71 µM | GI50 [9] 30.8 µM
> 100 µM: TGI [3] | TGI [4] | TGI [5] | TGI [10] | TGI [6] | TGI [7] | TGI [9]
17.4 µM: TGI [2]

CCN(CC)CC(C(=O)Nc1c(C)cccc1C)/C(C)=N\NC(=O)C[N+](C)(C)C (stereo not drawn)
> 100 µM: TGI [2] | TGI [3] | TGI [4] | TGI [5] | TGI [10] | TGI [6] | TGI [7] | TGI [9]

c1cc2c(cc1NC1=NCCO1)CCC2
> 10 µM: TGI [1] | TGI [2] | TGI [3] | TGI [4] | TGI [5] | TGI [7] | TGI [8]

Clc1cccc(Cc2cn3cc(-c4ccccc4)nc3s2)c1Cl
inactive: GI50 [2] 59.5 µM | GI50 [3] > 100 µM | GI50 [4] > 100 µM | GI50 [5] 56.2 µM | GI50 [10] 19.4 µM | GI50 [6] > 100 µM | GI50 [8] 22.3 µM | GI50 [9] 67.3 µM
> 100 µM: TGI [2] | TGI [3] | TGI [4] | TGI [5] | TGI [10] | TGI [6] | TGI [9]
80.8 µM: TGI [8]

Nc1cc2nc3ccccc3sc-2cc1=O
> 100 µM: TGI [4]
5.87 µM: TGI [10]
11.1 µM: TGI [3]
13.3 µM: TGI [2]
3.62 µM: TGI [5]
5.83 µM: TGI [9]
inactive: GI50 [2] 3.95 µM | GI50 [3] 1.44 µM | GI50 [4] 2.48 µM | GI50 [5] 2.04 µM | GI50 [10] 2.46 µM | GI50 [6] 1.93 µM | GI50 [7] 2.44 µM | GI50 [8] 2.03 µM | GI50 [9] 2.3 µM
4.08 µM: TGI [6]
7.35 µM: TGI [7]
4.24 µM: TGI [8]

CCOC(=O)Nc1nc2ccc(OCC)cc2s1
> 100 µM: TGI [2] | TGI [3] | TGI [4] | TGI [5] | TGI [10] | TGI [6] | TGI [7] | TGI [8] | TGI [9]
inactive: GI50 [2] 31.6 µM | GI50 [3] 5.12 µM | GI50 [4] 3.17 µM | GI50 [5] > 100 µM | GI50 [10] 6.49 µM | GI50 [6] > 100 µM | GI50 [7] > 100 µM | GI50 [8] 40.3 µM | GI50 [9] > 100 µM

C/C(CCn1[nH]c(=O)ccc1=O)=N\O
> 100 µM: TGI [1] | TGI [2] | TGI [3] | TGI [4] | TGI [5] | TGI [6] | TGI [7] | TGI [8] | TGI [9]
